Counter-ions that a name gives are not always drawn. Like-named read-outs stand apart in the source and are kept apart here.
What was measured:
[1] = Rat pharmacokinetics; format: in vivo, rats; settings: for AUC(0-t): AUC0-24 hr
Protocol: Pharmacokinetic (PK) data was obtained in rats to assess the bioavailability of test compound. In particular, the following PK parameters were calculated: bioavailability as measured by area under the Concentration/Time curve (AUC), fraction of dose available (% F; further defined below), clearance (CL), volume of distribution (Vd), and half-life (t½). […] Three rats were used per dosing group. Blood was collected over a 24-hr period. The time points for blood collection after intravenous administration were: 0, 2.5, 5, 10, 15, 30, 45 min, 1, 2, 4, 8, 12, and 24 hrs; time points for blood collection after p.o. administrations were: 0, 5, 15, 30, 45 min, 1, 2, 3, 4, 8, 12, and 24 hrs. Plasma samples were analyzed for compound levels by LC-MS/MS at PPD. Raw data was analyzed by non-compartmental analysis in Win-nonLin to calculate VD, % F, CL, and t1/2.

[2] = molecular target: T1, lysosomal GCase (Homo sapiens, UniProt P04062); assay: In situ lysosomal GCase inhibition and washout in fibroblasts from a normal subject (PFBFDβGlu substrate); format: cell-based; settings: for in situ washout: after 16-24 hours at IC90, single exponential fit of activity recovery over 8 hours
T1 construct: fibroblasts established from a normal subject; endogenous in cells; host or cells: fibroblasts established from a normal subject
T1 sequence (P04062 40-536): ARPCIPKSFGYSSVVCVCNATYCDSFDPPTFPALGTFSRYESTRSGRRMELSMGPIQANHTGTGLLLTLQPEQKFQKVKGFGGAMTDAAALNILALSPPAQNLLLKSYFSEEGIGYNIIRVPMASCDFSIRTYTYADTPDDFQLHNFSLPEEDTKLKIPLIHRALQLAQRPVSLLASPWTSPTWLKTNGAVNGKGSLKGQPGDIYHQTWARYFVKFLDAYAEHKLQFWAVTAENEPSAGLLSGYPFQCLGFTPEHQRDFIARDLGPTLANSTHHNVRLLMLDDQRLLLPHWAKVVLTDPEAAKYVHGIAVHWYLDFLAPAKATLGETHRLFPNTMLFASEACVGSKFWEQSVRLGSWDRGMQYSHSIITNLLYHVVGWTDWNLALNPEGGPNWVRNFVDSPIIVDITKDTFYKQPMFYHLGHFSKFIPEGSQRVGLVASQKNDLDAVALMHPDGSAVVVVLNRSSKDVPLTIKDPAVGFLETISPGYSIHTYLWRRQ
Protocol: The effect of the novel compounds of the present invention on lysosomal GCase activity was assayed in situ using fibroblasts established from a normal subject. Cells seeded in 48-well plates were incubated with the indicated concentrations of compound for 16-24 hours. For the dose-response assays, cells were incubated with the in situ substrate 5-(pentafluorobenzoylamino)fluorescein di-β-D-glucopyranoside (PFBFDβGlu) for 1 hour and subsequently lysed to determine the extent of substrate hydrolysis in the presence of compound. […] Inhibition was determined as the ratio of activity in the presence of compound to that in the absence of compound. […] Cells were washed extensively and incubated in drug-free medium to allow net compound efflux from cells. Cells were then tested for lysosomal GCase activity at 2 hour intervals over a total period of 8 hours following compound removal. The increase in activity over time was fitted with a single exponential function to determine the compound's washout time.

[3] = molecular target: T2, GCase (Homo sapiens, UniProt P04062); assay: GCase activity enhancement (EC50, Emax) of Table 2B; format: cell-based; settings: for GCase activity enhancement compared to reference compound IFG-tartrate: same maximum level as IFG-tartrate at much lower concentration
T2 sequence (P04062 40-536): T1 sequence (P04062 40-536)

[4] = male, Sprague-Dawley, plasma, iv, 3 mg/kg, IV 3 mg/kg free base

O[C@H]1[C@H](O)CNC[C@@H]1C(F)F [Compound 6, (3R,4R,5S)-5-(Difluoromethyl)piperdine 3,4-diol Hydrochloride]
dose proportionality [1]: dose proportionality | pharmacokinetic profile [1]: favorable pharmacokinetic profiles for drug development | volume of distribution [1]: suggesting adequate penetration into peripheral tissues | CL ([1]; IV 3 mg/kg free base): 25.92 mL/min/kg | Cmax ([1]; IV 3 mg/kg free base): 2323 ng/mL | VD ([1]; IV 3 mg/kg free base): 2.612 L/kg | % F ([1]; PO 10 mg/kg free base): 106% | Cmax ([1]; PO 10 mg/kg free base): 3363 ng/mL | t1/2 ([1]; PO 10 mg/kg free base): 2.58 h | % F ([1]; PO 30 mg/kg free base): 101% | Cmax ([1]; PO 30 mg/kg free base): 10037 ng/mL | t1/2 ([1]; PO 30 mg/kg free base): 2.75 h | % F ([1]; PO 100 mg/kg free base): 121% | Cmax ([1]; PO 100 mg/kg free base): 33200 ng/mL | t1/2 ([1]; PO 100 mg/kg free base): 2.41 h | in situ washout from the lysosomal compartment compared to IFG-tartrate [2]: considerably faster than reference compound IFG-tartrate | inhibition of GCase activity [2]: inhibited GCase activity | in situ washout [2]: 2.1 ± 0.30 h | Emax [3]: 106 ± 8.7% | GCase activity enhancement compared to reference compound IFG-tartrate [3]: concentration-dependent increase in GCase activity

CC(F)[C@H]1CNC[C@@H](O)[C@@H]1O (single isomer, unassigned)
dose proportionality [1]: dose proportionality | pharmacokinetic profile [1]: favorable pharmacokinetic profiles for drug development | volume of distribution [1]: suggesting adequate penetration into peripheral tissues | Vd [1, 4]: 9.77 ± 1.55 L/kg | clearance [1, 4]: 45.1 mL/min/kg | AUC(0-t) [1, 4]: 1420 ± 188 ng·h/mL | Cmax ([1]; male, Sprague-Dawley, plasma, iv, 3 mg/kg, IV 3 mg/kg free base, read-out: Cmax): 2330 ± 373 ng/mL | half-life ([1]; male, Sprague-Dawley, plasma, iv, 3 mg/kg, IV 3 mg/kg free base, read-out: t1/2 (converted)): 2.6 ± 0.64 h | AUC(0-t) ([1]; male, Sprague-Dawley, plasma, po, 10 mg/kg, PO 10 mg/kg free base): 7100 ± 606 ng·h/mL | half-life ([1]; male, Sprague-Dawley, plasma, po, 10 mg/kg, PO 10 mg/kg free base, read-out: t1/2 (converted)): 2.8 ± 0.5 h | AUC(0-t) ([1]; male, Sprague-Dawley, plasma, po, 30 mg/kg, PO 30 mg/kg free base): 21700 ± 1710 ng·h/mL | Cmax ([1]; male, Sprague-Dawley, plasma, po, 30 mg/kg, PO 30 mg/kg free base, read-out: Cmax): 6920 ± 451 ng/mL | half-life ([1]; male, Sprague-Dawley, plasma, po, 30 mg/kg, PO 30 mg/kg free base, read-out: t1/2 (converted)): 2.7 ± 0.12 h | AUC(0-t) ([1]; male, Sprague-Dawley, plasma, po, 100 mg/kg, PO 100 mg/kg free base): 59500 ± 1000 ng·h/mL | Cmax ([1]; male, Sprague-Dawley, plasma, po, 100 mg/kg, PO 100 mg/kg free base, read-out: Cmax): 19400 ± 3030 ng/mL | half-life ([1]; male, Sprague-Dawley, plasma, po, 100 mg/kg, PO 100 mg/kg free base, read-out: t1/2 (converted)): 2.5 ± 0.19 h | bioavailability ([1]; male, Sprague-Dawley, plasma, po, approximately): 50 to 100% | half-life ([1]; male, Sprague-Dawley, plasma, read-out: half-life): 1 to 4 h | in situ washout from the lysosomal compartment compared to IFG-tartrate [2]: considerably faster than reference compound IFG-tartrate | inhibition of GCase activity [2]: inhibited GCase activity | GCase activity enhancement compared to reference compound IFG-tartrate [3]: concentration-dependent increase in GCase activity

CC[C@@H](F)[C@H]1CNC[C@@H](O)[C@@H]1O.Cl [(3R,4R,5S)-5-((R)-1-fluoropropyl)-piperidine-3,4-diol hydrochloride]
inhibition of GCase activity [2]: inhibited GCase activity | Emax [3]: 84 ± 4.1% | GCase activity enhancement compared to reference compound IFG-tartrate [3]: concentration-dependent increase in GCase activity

O[C@@H]1[C@@H](Cc2ccccc2)CNC[C@H]1O [(3R,4R,5S)-5-benzyl-piperidine-3,4-diol]
dose proportionality [1]: dose proportionality | pharmacokinetic profile [1]: favorable pharmacokinetic profiles for drug development | volume of distribution [1]: suggesting adequate penetration into peripheral tissues | in situ washout from the lysosomal compartment compared to IFG-tartrate [2]: considerably faster than reference compound IFG-tartrate | inhibition of GCase activity [2]: inhibited GCase activity | in situ washout [2]: 1.2 ± 0.13 h | Emax [3]: 98 ± 4.5% | GCase activity enhancement compared to reference compound IFG-tartrate [3]: concentration-dependent increase in GCase activity

— US10035766B2, “Compositions for preventing and/or treating lysosomal storage disorders” (Amicus Therapeutics, Inc., priority 2009, dated 2018)
